This experiment has as its target Nluc-H1R (Homo sapiens, UniProt P35367). Put plainly: NanoBRET competition binding assay (displacement of 1) on Nluc-H1R expressing HEK293T cells. The following applies: for Ki / pKi: displacement of 1 (25 nM, KD = 8 nM), whole HEK293T cells, Cheng–Prusoff; for pKi: mean ± SEM, three experiments. In general terms: Bioluminescence resonance energy transfer reports proximity on the nanometre scale.

Square brackets hold non-standard residues; d marks the D form. Peptide text beside a SMILES is read from it. * marks the point of attachment. Propanoyl(3-Pip(4-O-2-BnPh)) = O=C(CCN1CCC(Oc2ccccc2Cc2ccccc2)CC1)*

Chain of Nluc-H1R (P35367 whole entry): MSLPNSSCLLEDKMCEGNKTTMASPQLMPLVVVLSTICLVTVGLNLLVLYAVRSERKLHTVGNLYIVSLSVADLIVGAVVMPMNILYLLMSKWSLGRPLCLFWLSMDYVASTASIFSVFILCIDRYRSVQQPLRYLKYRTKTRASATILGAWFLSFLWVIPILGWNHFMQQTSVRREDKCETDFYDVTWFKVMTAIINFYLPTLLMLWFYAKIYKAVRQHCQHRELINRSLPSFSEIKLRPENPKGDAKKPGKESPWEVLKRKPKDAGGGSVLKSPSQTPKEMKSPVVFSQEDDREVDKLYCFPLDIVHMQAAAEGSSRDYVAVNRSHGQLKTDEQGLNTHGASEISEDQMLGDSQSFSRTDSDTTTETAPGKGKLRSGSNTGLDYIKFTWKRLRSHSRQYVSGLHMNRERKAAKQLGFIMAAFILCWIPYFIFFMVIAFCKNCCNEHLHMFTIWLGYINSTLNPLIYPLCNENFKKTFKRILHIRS

For `CC(C)[C@H](NC(=O)CCN1CCC(Oc2ccccc2Cc2ccccc2)CC1)C(=O)N[C@@H](CO)C(=O)N[C@H](C(=O)N[C@H](Cc1ccccc1)C(N)=O)C(C)C` [Compound 10b, (S)-N-((R)-1-Amino-1-oxo-3-phenylpropan-2-yl)-2-((S)-2-((S)-2-(3-(4-(2-benzylphenoxy)piperidin-1-yl)propanamido)-3-methylbutanamido)-3-hydroxypropanamido)-3-methylbutanamide] ({Propanoyl(3-Pip(4-O-2-BnPh))}-VSV[dF]-NH2), affinity was put at a Ki of 309 nM and the pKi – broadly, −log10 of the Ki, conventionally taken in molar units – amounted to 6.51 ± 0.07.

Consider “(S)-N-((S)-1-(((S)-1-(((S)-1-Amino-1-oxo-3-phenylpropan-2-yl)amino)-3-(4-hydroxyphenyl)-1-oxopropan-2-yl)amino)-3-hydroxy-1-oxopropan-2-yl)-2-(3-(4-(2-benzylphenoxy)piperidin-1-yl)propanamido)-3-methylbutanamide [Compound 11a]”, for which the inhibitory constant (Ki) (as a rule, a measure of affinity in units of concentration, obtained from inhibition or displacement) was 89 nM. Besides, under “supplementary CSV, unlabeled congeners (pKi)”, the “pKi/pKD (H1R)” value came to 6.36.

In turn, `CC(C)[C@H](NC(=O)CCN1CCC(Oc2ccccc2Cc2ccccc2)CC1)C(=O)N[C@H](C(=O)N[C@@H](C)C(=O)N[C@H](Cc1ccccc1)C(N)=O)C(C)C` [Compound 9b, (S)-N-((S)-1-(((R)-1-Amino-1-oxo-3-phenylpropan-2-yl)amino)-1-oxopropan-2-yl)-2-((S)-2-(3-(4-(2-benzylphenoxy)piperidin-1-yl)propanamido)-3-methylbutanamido)-3-methylbutanamide] ({Propanoyl(3-Pip(4-O-2-BnPh))}-VVA[dF]-NH2) registered an inhibitory constant (Ki) of 372 nM and a pKi of 6.43 ± 0.06.

`C[C@H](NC(=O)CCN1CCC(Oc2ccccc2Cc2ccccc2)CC1)C(=O)N[C@@H](C)C(=O)N[C@@H](C)C(=O)N[C@H](Cc1ccccc1)C(N)=O` [Compound 8a, (S)-N-((R)-1-Amino-1-oxo-3-phenylpropan-2-yl)-2-((S)-2-((S)-2-(3-(4-(2-benzylphenoxy)piperidin-1-yl)-propana-mido)propanamido)propanamido)propanamide] ({Propanoyl(3-Pip(4-O-2-BnPh))}-AAA[dF]-NH2) showed a Ki of 912 nM and a pKi of 6.04 ± 0.16.

`C[C@H](NC(=O)[C@H](C)NC(=O)[C@H](Cc1cnc[nH]1)NC(=O)CCN1CCC(Oc2ccccc2Cc2ccccc2)CC1)C(=O)N[C@H](Cc1ccccc1)C(N)=O` [Compound 8h, (S)-N-((S)-1-(((S)-1-(((R)-1-Amino-1-oxo-3-phenylpropan-2-yl)amino)-1-oxopropan-2-yl)amino)-1-oxopropan-2-yl)-2-(3-(4-(2-benzylphenoxy)piperidin-1-yl)propanamido)-3-(1H-imidazol-5-yl)propanamide] ({Propanoyl(3-Pip(4-O-2-BnPh))}-HAA[dF]-NH2) registered a Ki of 933 nM and a pKi of 6.03 ± 0.13.

Compound `CC(C)[C@H](NC(=O)CCN1CCC(Oc2ccccc2Cc2ccccc2)CC1)C(=O)N[C@@H](C)C(=O)N[C@@H](C)C(=O)N[C@H](Cc1ccccc1)C(N)=O` [Compound 8c, (S)-N-((S)-1-(((S)-1-(((R)-1-Amino-1-oxo-3-phenylpropan-2-yl)amino)-1-oxopropan-2-yl)amino)-1-oxopropan-2-yl)-2-(3-(4-(2-benzylphenoxy)piperidin-1-yl)propanamido)-3-methylbutanamide] ({Propanoyl(3-Pip(4-O-2-BnPh))}-VAA[dF]-NH2) displayed a Ki of 158 nM and a pKi of 6.80 ± 0.12.

For `CC(C)[C@H](NC(=O)CCN1CCC(Oc2ccccc2Cc2ccccc2)CC1)C(=O)N[C@@H](CO)C(=O)N[C@@H](Cc1cnc[nH]1)C(=O)N[C@H](Cc1ccccc1)C(N)=O` [Compound 10g, (S)-N-((S)-1-(((S)-1-(((R)-1-Amino-1-oxo-3-phenylpropan-2-yl)amino)-3-(1H-imidazol-4-yl)-1-oxopropan-2-yl)amino)-3-hydroxy-1-oxopropan-2-yl)-2-(3-(4-(2-benzylphenoxy)piperidin-1-yl)propanamido)-3-methylbutanamide] ({Propanoyl(3-Pip(4-O-2-BnPh))}-VSH[dF]-NH2), the affinity, expressed as Ki, was 126 nM and the pKi was 6.90 ± 0.04.
